Usually inhibition stands for the change of the read-out against control, counted positive when it falls.

The assay has as its target T1, hFASN enzyme (full length) (Homo sapiens, UniProt P49327).
T1 construct: 10 μL hFASN enzyme (full length, 300 ng, purified in house); made in house
The assay is described as follows: Fatty Acid Synthase (FASN) inhibition scintillation proximity assay. The assay is classed as biochemical. The conditions noted are these: for inhibition at 10 µM: read-out: Human FASN % inhibition @ 10 μM, 10 μM test compound; for IC50: read-out: Human FASN pIC50 (converted). The procedure, abridged: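 Proximity read-out: hydrophobic ^3H-palmitate formed from ^3H-acetyl-CoA and malonyl-CoA binds streptavidin imaging beads, imaged at 610±20 nm at least 24 h after stopping. Enzyme was in-house purified full-length hFASN, 300 ng, in pH 7.5 phosphate/DTT buffer; compound series 30 μM down to 0.01 μM, normalized to controls, 4-parameter fit.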

T1 sequence (P49327 whole entry): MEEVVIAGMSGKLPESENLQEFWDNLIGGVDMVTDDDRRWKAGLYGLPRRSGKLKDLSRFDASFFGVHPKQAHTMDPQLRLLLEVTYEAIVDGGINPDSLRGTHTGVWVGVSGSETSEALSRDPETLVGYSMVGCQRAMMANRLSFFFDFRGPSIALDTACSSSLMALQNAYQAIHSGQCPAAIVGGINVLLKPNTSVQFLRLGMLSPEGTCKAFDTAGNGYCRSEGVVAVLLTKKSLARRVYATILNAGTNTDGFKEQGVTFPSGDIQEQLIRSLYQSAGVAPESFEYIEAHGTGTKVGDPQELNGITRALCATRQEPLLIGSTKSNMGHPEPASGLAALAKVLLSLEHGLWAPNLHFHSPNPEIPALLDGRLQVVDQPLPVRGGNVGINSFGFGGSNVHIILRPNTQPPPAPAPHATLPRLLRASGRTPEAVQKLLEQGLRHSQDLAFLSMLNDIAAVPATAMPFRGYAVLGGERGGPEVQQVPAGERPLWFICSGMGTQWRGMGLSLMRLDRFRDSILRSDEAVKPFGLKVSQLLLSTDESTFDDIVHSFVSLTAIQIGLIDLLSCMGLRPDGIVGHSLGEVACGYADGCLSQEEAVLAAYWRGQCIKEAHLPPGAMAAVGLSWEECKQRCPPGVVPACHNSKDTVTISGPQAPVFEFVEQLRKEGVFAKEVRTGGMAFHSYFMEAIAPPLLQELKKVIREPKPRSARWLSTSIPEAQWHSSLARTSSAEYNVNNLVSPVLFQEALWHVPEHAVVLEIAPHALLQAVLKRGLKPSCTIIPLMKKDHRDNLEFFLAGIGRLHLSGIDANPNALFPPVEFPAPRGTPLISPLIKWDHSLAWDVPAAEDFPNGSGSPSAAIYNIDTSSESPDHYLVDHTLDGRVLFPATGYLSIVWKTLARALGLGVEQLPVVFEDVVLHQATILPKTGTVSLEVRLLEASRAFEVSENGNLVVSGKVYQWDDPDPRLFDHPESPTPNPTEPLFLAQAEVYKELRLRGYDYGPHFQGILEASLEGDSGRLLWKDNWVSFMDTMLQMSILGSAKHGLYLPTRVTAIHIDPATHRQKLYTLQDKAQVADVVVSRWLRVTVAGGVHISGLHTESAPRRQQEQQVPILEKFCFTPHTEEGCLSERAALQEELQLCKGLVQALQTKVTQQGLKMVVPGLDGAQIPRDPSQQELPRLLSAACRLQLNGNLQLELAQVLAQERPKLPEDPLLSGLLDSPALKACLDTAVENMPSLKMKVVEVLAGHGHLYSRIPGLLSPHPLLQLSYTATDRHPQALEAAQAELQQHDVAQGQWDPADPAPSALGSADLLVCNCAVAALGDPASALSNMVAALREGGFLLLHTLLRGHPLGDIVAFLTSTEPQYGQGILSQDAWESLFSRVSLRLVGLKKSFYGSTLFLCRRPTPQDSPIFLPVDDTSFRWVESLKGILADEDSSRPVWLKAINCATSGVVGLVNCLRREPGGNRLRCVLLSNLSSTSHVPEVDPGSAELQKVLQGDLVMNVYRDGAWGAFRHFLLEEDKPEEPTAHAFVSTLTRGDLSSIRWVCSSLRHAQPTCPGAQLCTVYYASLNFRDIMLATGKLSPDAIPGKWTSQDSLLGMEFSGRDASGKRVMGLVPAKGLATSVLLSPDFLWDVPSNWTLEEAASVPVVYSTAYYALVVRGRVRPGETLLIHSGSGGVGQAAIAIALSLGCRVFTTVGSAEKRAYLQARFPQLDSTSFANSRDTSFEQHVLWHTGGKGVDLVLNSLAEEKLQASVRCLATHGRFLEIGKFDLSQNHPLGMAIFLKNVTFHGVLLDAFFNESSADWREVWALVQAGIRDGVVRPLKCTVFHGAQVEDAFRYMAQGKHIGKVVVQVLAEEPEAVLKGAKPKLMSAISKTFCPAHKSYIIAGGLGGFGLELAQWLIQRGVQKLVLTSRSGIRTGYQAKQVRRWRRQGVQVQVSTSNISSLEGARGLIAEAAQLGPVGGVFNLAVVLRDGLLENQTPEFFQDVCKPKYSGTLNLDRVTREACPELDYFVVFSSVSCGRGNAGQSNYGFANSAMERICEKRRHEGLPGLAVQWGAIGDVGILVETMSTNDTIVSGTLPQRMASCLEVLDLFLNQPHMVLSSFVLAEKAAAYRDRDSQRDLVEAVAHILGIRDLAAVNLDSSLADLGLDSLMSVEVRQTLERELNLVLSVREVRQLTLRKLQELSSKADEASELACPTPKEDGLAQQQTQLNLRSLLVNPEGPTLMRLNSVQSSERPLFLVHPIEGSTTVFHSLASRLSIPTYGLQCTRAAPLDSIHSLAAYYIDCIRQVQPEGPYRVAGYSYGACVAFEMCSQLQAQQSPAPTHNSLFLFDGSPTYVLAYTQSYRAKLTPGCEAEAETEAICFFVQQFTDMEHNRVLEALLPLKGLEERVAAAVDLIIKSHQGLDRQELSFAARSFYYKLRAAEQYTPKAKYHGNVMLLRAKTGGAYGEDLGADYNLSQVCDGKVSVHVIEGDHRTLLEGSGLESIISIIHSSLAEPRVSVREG

For `Cc1cc2cc(-c3ccc(C4=NC5(CCN(C(=O)C6CC6)CC5)C(=O)N4C[C@@H]4CCN(C(=O)C5CC5)C4)cc3)ccc2o1` [compound 171, 8-(Cyclopropylcarbonyl)-3-{[(3R)-1-(cyclopropylcarbonyl)pyrrolidin-3-yl]methyl}-2-[4-(2-methyl-1-benzofuran-5-yl)phenyl]-1,3,8-triazaspiro[4.5]dec-1-en-4-one], the inhibition at 10 µM amounted to 107% and the IC50 is 214 nM.
As to `Cc1cc2cc(-c3ccc(C4=NC5(CCN(C(=O)C(C)C)CC5)C(=O)N4C[C@@H]4CCN(C(=O)C5CC5)C4)cc3)ccc2o1` [compound 172, 3-{[(3R)-1-(Cyclopropylcarbonyl)pyrrolidin-3-yl]methyl}-2-[4-(2-methyl-1-benzofuran-5-yl)phenyl]-8-(2-methylpropanoyl)-1,3,8-triazaspiro[4.5]dec-1-en-4-one], the inhibition at 10 µM is 108% and the IC50 is 251 nM.
For `Cc1cc2cc(-c3ccc(C4=NC5(CCN(CCO)CC5)C(=O)N4C[C@@H]4CCN(C(=O)C5CC5)C4)cc3)ccc2o1` [compound 173, 3-{[(3R)-1-(Cyclopropylcarbonyl)pyrrolidin-3-yl]methyl}-8-(2-hydroxyethyl)-2-[4-(2-methyl-1-benzofuran-5-yl)phenyl]-1,3,8-triazaspiro[4.5]dec-1-en-4-one] the same measures were 97% and 380 nM.
For `Cc1cc2cc(-c3ccc(C4=NC5(CCN(C(=O)CN(C)C)CC5)C(=O)N4C[C@@H]4CCN(C(=O)C5CC5)C4)cc3)ccc2o1` [compound 174, 3-{[(3R)-1-(Cyclopropylcarbonyl)pyrrolidin-3-yl]methyl}-8-(N,N-dimethylglycyl)-2-[4-(2-methyl-1-benzofuran-5-yl)phenyl]-1,3,8-triazaspiro[4.5]dec-1-en-4-one] the same measures were 109% and 245 nM.
On to `Cc1cc2cc(-c3ccc(C4=NC5(CC5)C(=O)N4CC4CN(C(=O)C5CC5)C4)cc3)ccc2o1` [compound 178, 6-{[1-(Cyclopropylcarbonyl)azetidin-3-yl]methyl}-5-[4-(2-methyl-1-benzofuran-5-yl)phenyl]-4,6-diazaspiro[2.4]hept-4-en-7-one], for which the inhibition at 10 µM is 108% and the IC50 is 102 nM.
As to `Cc1cc2cc(-c3ccc(C4=NC5(CC5)C(=O)N4CC4CN(C(=O)C5CC5)C4)cc3C)ccc2o1` [compound 179, 6-{[1-(Cyclopropylcarbonyl)azetidin-3-yl]methyl}-5-[3-methyl-4-(2-methyl-1-benzofuran-5-yl)phenyl]-4,6-diazaspiro[2.4]hept-4-en-7-one], the inhibition at 10 µM came to 59.5% and the IC50 is 6310 nM.
For `Cc1cc(C2=NC3(CC3)C(=O)N2C[C@@H]2CCN(C(=O)C3CC3)C2)ccc1-c1ccc2occc2c1` [compound 180, 5-[4-(1-Benzofuran-5-yl)-3-methylphenyl]-6-{[(3R)-1-(cyclopropylcarbonyl)pyrrolidin-3-yl]methyl}-4,6-diazaspiro[2.4]hept-4-en-7-one] the same measures were 101% and 138 nM.
Taken in the same sequence, the figures for `CC(=O)N1CCC2(CC1)N=C(c1ccc(-c3ccc4sc(C)c(C)c4c3)cc1)N(C[C@@H]1CCN(C(=O)C3CC3)C1)C2=O` [compound 181, 8-Acetyl-3-{[(3R)-1-(cyclopropylcarbonyl)pyrrolidin-3-yl]methyl}-2-[4-(2,3-dimethyl-1-benzothiophen-5-yl)phenyl]-1,3,8-triazaspiro[4.5]dec-1-en-4-one] were 109% and 123 nM.
Taken in the same sequence, the figures for `Cc1sc2ccc(-c3ccc(C4=NC5(CCN(C(=O)CN(C)C)CC5)C(=O)N4C[C@@H]4CCN(C(=O)C5CC5)C4)cc3)cc2c1C` [compound 182, 3-{[(3R)-1-(Cyclopropylcarbonyl)pyrrolidin-3-yl]methyl}-2-[4-(2,3-dimethyl-1-benzothiophen-5-yl)phenyl]-8-(N,N-dimethylglycyl)-1,3,8-triazaspiro[4.5]dec-1-en-4-one] were 104% and 138 nM.
In the case of `Cc1sc2ccc(-c3ccc(C4=NC5(CCN(C(=O)C(C)C)CC5)C(=O)N4C[C@@H]4CCN(C(=O)C5CC5)C4)cc3)cc2c1C` [compound 183, 3-{[(3R)-1-(Cyclopropylcarbonyl)pyrrolidin-3-yl]methyl}-2-[4-(2,3-dimethyl-1-benzothiophen-5-yl)phenyl]-8-(2-methylpropanoyl)-1,3,8-triazaspiro[4.5]dec-1-en-4-one], the inhibition at 10 µM turned out to be 109% and the IC50 was 138 nM.
Taken in the same sequence, the figures for `Cc1sc2ccc(-c3ccc(C4=NC5(CCN(C(C)C)CC5)C(=O)N4C[C@@H]4CCN(C(=O)C5CC5)C4)cc3)cc2c1C` [compound 184, 3-{[(3R)-1-(Cyclopropylcarbonyl)pyrrolidin-3-yl]methyl}-2-[4-(2,3-dimethyl-1-benzothiophen-5-yl)phenyl]-8-(1-methylethyl)-1,3,8-triazaspiro[4.5]dec-1-en-4-one] were 107% and 437 nM.
Taken in the same sequence, the figures for `Cc1cc2cc(-c3ccc(C4=NC5(CCN(C(C)C)CC5)C(=O)N4C[C@@H]4CCN(C(=O)C5CC5)C4)cc3)ccc2o1` [compound 186, 3-{[(3R)-1-(Cyclopropylcarbonyl)pyrrolidin-3-yl]methyl}-2-[4-(2-methyl-1-benzofuran-5-yl)phenyl]-8-(1-methylethyl)-1,3,8-triazaspiro[4.5]dec-1-en-4-one] were 80.4% and 1550 nM.
In the case of `CC(C)N1CCC2(CC1)N=C(c1ccc(-c3ccc4[nH]ccc4c3)cc1)N(CC1CN(C(=O)C3CC3)C1)C2=O` [compound 187, 3-{[1-(Cyclopropylcarbonyl)azetidin-3-yl]methyl}-2-[4-(1H-indol-5-yl)phenyl]-8-(1-methylethyl)-1,3,8-triazaspiro[4.5]dec-1-en-4-one], the inhibition at 10 µM turned out to be 96.5% and the IC50 is 603 nM.
In the case of `CC(C)N1CCC2(CC1)N=C(c1ccc(-c3ccc4[nH]ncc4c3)cc1)N(CC1CN(C(=O)C3CC3)C1)C2=O` [compound 188, 3-{[1-(Cyclopropylcarbonyl)azetidin-3-yl]methyl}-2-[4-(1H-indazol-5-yl)phenyl]-8-(1-methylethyl)-1,3,8-triazaspiro[4.5]dec-1-en-4-one], the inhibition at 10 µM was determined as 50.4% and the IC50 is around 10000 nM.
Taken in the same sequence, the figures for `O=C1N(C[C@@H]2CCN(S(=O)(=O)N3CCCC3)C2)C(c2ccc(-c3ccc4occc4c3)cc2)=NC12CCCC2` [compound 189, 2-[4-(1-Benzofuran-5-yl)phenyl]-3-{[(3S)-1-(pyrrolidin-1-ylsulfonyl)pyrrolidin-3-yl]methyl}-1,3-diazaspiro[4.4]non-1-en-4-one] were 16.7% and above 10000 nM.
`O=C([C@@H]1CCCO1)N1CC[C@@H](CN2C(=O)C3(CCCC3)N=C2c2ccc(-c3ccc4occc4c3)cc2)C1` [compound 190, 2-(4-(Benzofuran-5-yl)phenyl)-3-(((R)-1-((S)-tetrahydro-furan-2-carbonyl)pyrrolidin-3-yl)methyl)-1,3-diazaspiro[4.4]non-1-en-4-one]: the inhibition at 10 µM came to 105% and the IC50 is 295 nM.
For `O=C([C@H]1CCCO1)N1CC[C@@H](CN2C(=O)C3(CCCC3)N=C2c2ccc(-c3ccc4occc4c3)cc2)C1` [compound 191, 2-[4-(1-Benzofuran-5-yl)phenyl]-3-({(3R)-1-[(2R)-tetrahydro-furan-2-ylcarbonyl]pyrrolidin-3-yl}methyl)-1,3-diazaspiro[4.4]non-1-en-4-one] the same measures were 108% and 79.4 nM.
As to `N#CC1(C(=O)N2CC[C@@H](CN3C(=O)C4(CCCC4)N=C3c3ccc(-c4ccc5occc5c4)cc3)C2)CC1` [compound 192, 1-{[(3R)-3-({2-[4-(1-Benzofuran-5-yl)phenyl]-4-oxo-1,3-diazaspiro[4.4]non-1-en-3-yl}methyl)pyrrolidin-1-yl]carbonyl}cyclopropancarbonitrile], the inhibition at 10 µM was found to be 94.3% and the IC50 was 589 nM.
Taken in the same sequence, the figures for `O=C(C1CC1)N1CCC[C@@H](CN2C(=O)C3(CC3)N=C2c2ccc(-c3ccc4[nH]ncc4c3)cc2)C1` [compound 389, 6-{[(3R)-1-(Cyclopropylcarbonyl)piperidin-3-yl]methyl}-5-[4-(1H-indazol-5-yl)phenyl]-4,6-diazaspiro[2.4]hept-4-en-7-one] were 56% and 7240 nM.
As to `Cc1cc(C2=NC3(CC3)C(=O)N2CC2CN(C(=O)C3CC3)C2)ccc1-c1ccc2occc2c1` [compound 393, 5-[4-(1-Benzofuran-5-yl)-3-methylphenyl]-6-{[1-(cyclopropylcarbonyl)azetidin-3-yl]methyl}-4,6-diazaspiro[2.4]hept-4-en-7-one], the inhibition at 10 µM is 62% and the IC50 was around 2880 nM.
Take `O=C(C1CC1)N1CCC[C@@H](CN2C(=O)C3(CC3)N=C2c2ccc(-c3ccc4sccc4c3)cc2)C1` [compound 394, 5-[4-(1-Benzothiophen-5-yl)phenyl]-6-{[(3R)-1-(cyclopropylcarbonyl)piperidin-3-yl]methyl}-4,6-diazaspiro[2.4]hept-4-en-7-one]: the inhibition at 10 µM was determined as 84% and the IC50 is 1070 nM.
Taken in the same sequence, the figures for `O=C(C1CC1)N1CCC[C@@H](CN2C(=O)C3(CC3)N=C2c2ccc(-c3ccc4occc4c3)cc2)C1` [compound 395, 5-[4-(1-Benzofuran-5-yl)phenyl]-6-{[(3R)-1-(cyclopropylcarbonyl)piperidin-3-yl]methyl}-4,6-diazaspiro[2.4]hept-4-en-7-one] were 54% and 6310 nM.
Taken in the same sequence, the figures for `COC(=O)c1cccc(-c2ccc(C3=NC4(CC4)C(=O)N3C[C@@H]3CCN(C(=O)C4CC4)C3)cc2)c1` [compound 401, Methyl 4′-(6-{[(3R)-1-(cyclopropylcarbonyl)pyrrolidin-3-yl]methyl}-7-oxo-4,6-diazaspiro[2.4]hept-4-en-5-yl)biphenyl-3-carboxylate] were 70% and 3720 nM.

These data come from patent US10077261B2, “Imidazolin-5-one derivative useful as FASN inhibitors for the treatment of cancer” (Janssen Pharmaceutica NV, priority 2012, dated 2018).
